For orientation: Ki means the equilibrium dissociation constant of an inhibitor or competing ligand from its target. For orientation: IC50 means the concentration needed to halve the response being measured. Read a high IC50 as a need for much substance. By inhibition is commonly meant the relative decrease from the control value, in per cent. In general, Km refers to the concentration of substrate that gives half-maximal velocity.

Consider 17 compounds from paper PMC6150212, “New Biflavonoids with α-Glucosidase and Pancreatic Lipase Inhibitory Activities from Boesenbergia rotunda” (Molecules : A Journal of Synthetic Chemistry and Natural …, 2017).

Read-outs that look alike come from different tables or passages of the source.

Experiment [1] deals with T1, lipase from porcine pancreas (Type II) (Sus scrofa, UniProt P00591).
T1 construct: lipase from porcine pancreas (Type II); purchased Sigma Chemical, Inc. (St. Louis, MO, USA); host or cells: porcine pancreas
T1 sequence (P00591 1-450): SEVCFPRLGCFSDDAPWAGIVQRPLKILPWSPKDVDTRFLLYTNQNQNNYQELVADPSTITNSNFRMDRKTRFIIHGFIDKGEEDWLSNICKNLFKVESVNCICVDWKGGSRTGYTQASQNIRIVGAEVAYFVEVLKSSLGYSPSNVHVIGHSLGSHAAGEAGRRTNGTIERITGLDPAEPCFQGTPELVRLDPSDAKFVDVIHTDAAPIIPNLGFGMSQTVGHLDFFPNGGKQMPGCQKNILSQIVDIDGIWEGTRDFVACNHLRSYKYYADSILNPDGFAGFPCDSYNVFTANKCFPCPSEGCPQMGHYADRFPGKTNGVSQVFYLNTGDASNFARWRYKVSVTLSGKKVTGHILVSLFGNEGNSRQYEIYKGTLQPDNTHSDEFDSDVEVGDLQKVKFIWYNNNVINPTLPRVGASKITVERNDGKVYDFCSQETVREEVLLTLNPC
In words: Kinetic study of lipase inhibition (Lineweaver-Burk and secondary plots). It counts as biochemical. The following applies: for Mode of inhibition of lipase: Lineweaver-Burk plot; for Ki: from secondary plot. On the procedure: (§1) The lipase inhibitory activity was assessed by measuring the amount of 4-methylumbelliferone (4MU), using 4-methylumbelliferyl oleate (4MUO) as substrate. The assay was modified from a previously reported method. In brief, 25 μL of a blank, plant extract vehicle, or a sample solution and 50 μL of 0.5 mM 4MUO in buffer consisting of 13 mM Tris-HCl, 150 mM NaCl, and 1.3 mM CaCl2 (pH 8.0), were mixed in 96-well microtiter plate. Twenty-five microliters of lipase from porcine pancreas (Type II), prepared at 0.5 mg/mL in the same buffer, was then added to start the enzyme reaction. After incubation at room temperature for 30 min, 100 μL of 0.1 M sodium citrate (pH 4.2) was added to stop the reaction. Fluorescence, corresponding to released 4MU, was then measured with excitation and emission wavelengths of 355 and 460 nm, respectively.
(§2) An enzyme kinetic analysis was performed based on the α-glucosidase or lipase inhibition assay as described above. The PNPG concentrations varied from 1 to 4 mM, and the 4-MUO concentrations varied from 0.063 to 1 mM in the absence or presence of the test compounds for kinetic assays of α-glucosidase and lipase, respectively. The inhibition mode was determined by double-reciprocal Lineweaver-Burk plot (1/V vs. 1/[S]). In order to estimate the Ki value, slopes of double-reciprocal lines were used to construct a secondary plot, and Ki was calculated from the line equation of the plot.

Experiment [2] addresses T1, lipase from porcine pancreas (Type II). Kind of experiment: Lipase inhibitory activity assay (4MUO substrate). In kind it is biochemical. On the procedure: (§3) Optical rotations were obtained with a Perkin-Elmer 341 polarimeter (Boston, MA, USA). UV spectra were measured on a Milton Roy Spectronic 300 Array spectrophotometer, and IR was recorded on a Perkin-Elmer FT-IR 1760x spectrophotometer (Boston, MA, USA). High-resolution electrospray ionization mass spectra (HR-ESI-MS) were recorded with a Bruker micro TOF mass spectrometer (Billerica, MA, USA). NMR spectra were obtained with a Bruker Avance DPX-300 FT-NMR spectrometer (Billerica, MA, USA). Vacuum liquid chromatography (VLC) and column chromatography (CC) were performed on silica gel 60 (Merck, 70–230 µm, Darmstadt, Germany), silica gel 60 (Merck, […]) or Sephadex LH-20 (Pharmacia, Piscataway, NJ, USA). Yeast α-glucosidase enzyme, p-nitrophenol-α-D-glucopyranoside, pancreatic lipase, and 4-methylumbelliferyl oleate were purchased from Sigma Chemical, Inc. (St. Louis, MO, USA), and acarbose from Fluka Chemical (Buchs, Switzerland).
as §1

Experiment [3] addresses Yeast α-glucosidase enzyme. Kind of experiment: α-Glucosidase inhibitory activity assay (PNPG hydrolysis). It counts as biochemical. On the procedure: as §3
(§4) The assay was based on the capacity of the sample to inhibit the hydrolysis of p-nitrophenyl-α-D-glucoside (PNPG) by α-glucosidase to release p-nitrophenol (PNP), a yellow color agent that can be monitored at 405 nm. Briefly, 10 μL of sample solution and 40 μL of 0.1 unit/mL α-glucosidase were incubated at 37 °C for 10 min. Then, 50 μL of 2 mM PNPG was added, and the mixture was further incubated at 37 °C for 20 min. One hundred microliters of 1 mM Na2CO3 was added, and the progress of the enzyme inhibition was monitored by measuring the absorbance at 405 nm. Acarbose was used as a positive control.

Experiment [4] deals with Yeast α-glucosidase enzyme. In words: Kinetic study of α-glucosidase inhibition (Lineweaver-Burk and secondary plots). The following applies: for Mode of inhibition of α-glucosidase / Km: Lineweaver-Burk plot; for Km: PNPG substrate, read-out: Michaelis-Menten constant, Km (x-axis intersection), α-glucosidase; for Ki: from secondary plot, read-out: α-Glucosidase inhibition constant (Ki). It counts as biochemical. The method, then:
as §4, §2

In experiment [5] the test system is high-fat-diet (HFD)-induced obesity. Set-up: method as in PMID 22312299, PMID 21320266. Particulars: mice; by activating AMPK; cited from earlier work.

Regarding `CCCCCCCCCCC[C@@H](C[C@@H]1OC(=O)[C@H]1CCCCCC)OC(=O)[C@H](CC(C)C)NC=O` [Orlistat, reference compound], the “Mode of inhibition of lipase” value in experiment [1] is “competitive”.

For `COc1cc(O)c(C(=O)CC(c2ccccc2)c2c(O)cc3c(c2O)C(=O)CC(c2ccccc2)O3)c(O)c1` (stereo not shown) [Compound 9, rotundaflavanochalcone], in experiment [1], the “Mode of inhibition of lipase” value is “non-competitive” and the Ki stood at 3.55 µM. Also, in experiment [2], inhibition was half-maximal at 25.8 ± 2.6 µM (IC50) and testing at 20 µg/mL gave an inhibition of 69.1 ± 1.6%. Also, in experiment [3], the IC50 was determined as 2.4 ± 0.4 µM and the “α-Glucosidase % Inhibition (at 20 µg/mL)” value was found to be 100.0 ± 0.0%. Besides, in experiment [4], the “Mode of inhibition of α-glucosidase” value was “non-competitive”, the Km was determined as 470 µM and the Ki was 7.19 µM.

In experiment [2], `O=C(CC(c1ccccc1)c1c(O)cc2c(c1O)C(=O)CC(c1ccccc1)O2)c1c(O)cc(O)cc1O` (stereo not shown) [Compound 13, de-O-methyl rotundaflavanochalcone] registered an IC50 of 10.6 ± 1.2 µM and an inhibition at 20 µg/mL of 80.5 ± 0.6%. Moreover, in experiment [3], the half-maximal inhibitory concentration (IC50) is 1.3 ± 0.2 µM and the “α-Glucosidase % Inhibition (at 20 µg/mL)” value was 100.0 ± 0.1%.

For the compound `CC(C)=CCC/C(C)=C/CO` [Compound 2, Geraniol], the inhibition at 20 µg/mL in experiment [2] was determined as 30.6 ± 2%. In addition, in experiment [3], the “α-Glucosidase % Inhibition (at 20 µg/mL)” value came out at 9.6 ± 4.0%.

Take `COc1cc(O)cc(O)c1C(=O)CC(c1ccccc1)c1c(O)cc2c(c1O)C(=O)CC(c1ccccc1)O2` (stereo not shown) [Compound 12, iso-rotundaflavanochalcone]: in experiment [2], 30.1 ± 2.3 µM corresponded to half-maximal inhibition (IC50) and the inhibition at 20 µg/mL came out at 67.8 ± 1.3%. Besides, in experiment [3], it took 3.4 ± 0.9 µM to reach half-maximal inhibition (IC50) and the “α-Glucosidase % Inhibition (at 20 µg/mL)” value was 100.0 ± 0.2%.

Turning to `C[C@H]1O[C@H](O[C@H]2[C@H](O)[C@@H](O)[C@@H](O[C@H]3[C@H](O)[C@@H](O)C(O)O[C@@H]3CO)O[C@@H]2CO)[C@H](O)[C@@H](O)[C@@H]1N[C@H]1C=C(CO)[C@@H](O)[C@H](O)[C@H]1O` (stereo partly shown) [Acarbose, reference compound], half-maximal inhibition in experiment [3] (IC50) was put at 1160 ± 23 µM. The half-maximal inhibitory concentration (IC50) in experiment [3] (rounded value) was determined as 1200 µM. Further, in experiment [4], the “Mode of inhibition of α-glucosidase” value is “competitive” and the Ki was found to be 167 µM.

On to `COc1cc(O)cc(O)c1C(=O)/C=C/c1ccc(O)cc1` [Compound 14, 4,4′,6′-trihydroxy-2′-methoxychalcone], for which testing at 20 µg/mL in experiment [2] gave an inhibition of 70.9 ± 2%. Also, the “α-Glucosidase % Inhibition (at 20 µg/mL)” value in experiment [3] came to 97.1 ± 0.5%.

As to `COc1cc(O)cc(O)c1C(=O)C1C(CC=C(C)C)C(C)=CCC1c1ccccc1` (stereo not shown) [Compound 4, Isopanduratin A], in experiment [1], the “Mode of inhibition of lipase” value is listed as “mixed-type” and the affinity, expressed as Ki, was 5.79 µM. In experiment [2], the IC50 worked out at 15.1 ± 3.3 µM and the inhibition at 20 µg/mL is 75.2 ± 1.1%. For the same compound, in experiment [3], the IC50 was determined as 7.5 ± 0.6 µM and the “α-Glucosidase % Inhibition (at 20 µg/mL)” value was 97.8 ± 0.8%.

Take `COc1cc(O)cc2c1C(=O)CC(c1ccc(O)cc1)O2` (stereo not shown) [Compound 15, 4′-7-Dihydroxy-5-methoxyflavanone]: the inhibition at 20 µg/mL in experiment [2] turned out to be 44.7 ± 1.7%. In addition, in experiment [3], the “α-Glucosidase % Inhibition (at 20 µg/mL)” value came to 20.9 ± 2.1%.

In experiment [2], `O=C(CCc1ccccc1)c1c(O)cc(O)cc1O` [Compound 10, 2′,4′,6′-Trihydroxydihydrochalcone] registered an inhibition at 20 µg/mL of 48.7 ± 3.5%. In experiment [3], the IC50 was found to be 32 ± 2.2 µM and the “α-Glucosidase % Inhibition (at 20 µg/mL)” value is reported as 88.1 ± 0.9%.

For the compound `COc1cc(O)cc(O)c1C(=O)/C=C/c1ccccc1` [Compound 6, Cardamonin], in experiment [2], testing at 20 µg/mL gave an inhibition of 7.7 ± 1.9%. In experiment [3], the “α-Glucosidase % Inhibition (at 20 µg/mL)” value is 19.7 ± 0.9%.

As to `O=C1C[C@@H](c2ccccc2)Oc2cc(O)cc(O)c21` [Compound 5, Pinocembrin], the inhibition at 20 µg/mL in experiment [2] came out at 3.7 ± 1.3%. The “α-Glucosidase % Inhibition (at 20 µg/mL)” value in experiment [3] was found to be 19.8 ± 0.1%.

As to `COc1cc(O)c2c(c1)O[C@H](c1ccccc1)CC2=O` [Compound 1, Pinostrobin], the inhibition at 20 µg/mL in experiment [2] came out at 7.9 ± 0.8%. In experiment [3], the “α-Glucosidase % Inhibition (at 20 µg/mL)” value is listed as 10.0 ± 2.9%.

`COc1cc(/C=C/c2ccccc2)oc(=O)c1` [Compound 8, 5,6-Dehydrokawain] registered an inhibition at 20 µg/mL in experiment [2] of 33.7 ± 1%. The “α-Glucosidase % Inhibition (at 20 µg/mL)” value in experiment [3] came to 9.5 ± 2.5%.

As for `CC(C)=CC[C@@H]1C(C)=CC[C@@H](c2ccccc2)[C@@H]1C(=O)c1c(O)cc(O)cc1O` [Compound 7, Hydroxypanduratin A], in experiment [2], the inhibition at 20 µg/mL worked out at 49.3 ± 2.7%. In experiment [3], the IC50 was 4.6 ± 0.4 µM and the “α-Glucosidase % Inhibition (at 20 µg/mL)” value turned out to be 98.5 ± 0.4%. Also, in experiment [4], the “Mode of inhibition of α-glucosidase” value is listed as “non-competitive”, the Km was 460 µM and the Ki stood at 4.03 µM.

In experiment [2], `COc1cc(O)c(C(=O)[C@@H]2[C@H](CC=C(C)C)C(C)=CC[C@H]2c2ccccc2)c(O)c1` [Compound 3, Panduratin A] yielded a concentration for half-maximal inhibition (IC50) of 17.1 ± 3.7 µM and an inhibition at 20 µg/mL of 72.3 ± 0.1%. For the same compound, in experiment [5], the “Effect on high-fat-diet (HFD)-induced obesity” value is “attenuate high-fat-diet (HFD)-induced obesity”. In experiment [3], the IC50 amounted to 12.7 ± 1.3 µM and the “α-Glucosidase % Inhibition (at 20 µg/mL)” value is recorded as 94.7 ± 0.4%.

As to Alpinetin [Compound 11], the “Lipase % Inhibition (at 20 µg/mL)” value in experiment [2] (at 20 µg/mL) amounted to 8.0 ± 1.9%. The “α-Glucosidase % Inhibition (at 20 µg/mL)” value in experiment [3] amounted to 7.0 ± 2.0%.
